# Data reported in publication PMC6149898, “GPCR Modulation of Thieno[2,3-b]pyridine Anti-Proliferative Agents” (Molecules : A Journal of Synthetic Chemistry and Natural …, 2017).
# What was measured:
# GPR92 = GPR92 (Homo sapiens, UniProt Q9H1C0); assay: gpcrMAX PathHunter beta-arrestin
# DRD3 = DRD3 (Homo sapiens, UniProt P35462); assay: gpcrMAX PathHunter beta-arrestin
# FSHR = FSHR (Homo sapiens, UniProt P23945); assay: gpcrMAX PathHunter beta-arrestin
# SSTR2 = SSTR2 (Homo sapiens, UniProt P30874); assay: gpcrMAX PathHunter beta-arrestin
# DRD4 = DRD4 (Homo sapiens, UniProt P21917); assay: gpcrMAX PathHunter beta-arrestin
# CO:HCT-116 = system: CO:HCT-116; design: method as in earlier work; conditions: NCI-60 panel; ref [4],[5],[6],[7]; cited from earlier work
# AVPR1A = AVPR1A (Homo sapiens, UniProt P37288); assay: gpcrMAX PathHunter beta-arrestin
# NMBR = NMBR (Homo sapiens, UniProt P28336); assay: gpcrMAX PathHunter beta-arrestin
# HRH2 = HRH2 (Homo sapiens, UniProt P25021); assay: gpcrMAX PathHunter beta-arrestin
# VIPR1 = VIPR1 (Homo sapiens, UniProt P32241); assay: gpcrMAX PathHunter beta-arrestin
# CNR2 = CNR2 (Homo sapiens, UniProt P34972); assay: gpcrMAX PathHunter beta-arrestin
# ME:SK-MEL-28 = system: ME:SK-MEL-28; design: method as in earlier work; conditions: NCI-60 panel; ref [4],[5],[6],[7]; cited from earlier work
# PTGER2 = PTGER2 (Homo sapiens, UniProt P43116); assay: gpcrMAX PathHunter beta-arrestin
# CCR9 = CCR9 (Homo sapiens, UniProt P51686); assay: gpcrMAX PathHunter beta-arrestin
# NPSR1B = molecular target: T1, NPSR1B (Homo sapiens, UniProt Q6W5P4); assay: gpcrMAX PathHunter beta-arrestin; type: cell-based
# T1 construct: ProLink (beta-galactosidase enzyme-donor fragment)
# Procedure: (§1) complementation (EFC) technology. […]
# (§2) challenge at the EC80 concentration. […]
# (§3) minutes. Vehicle concentration was 1%. […]
# (§4) room temperature for 90 or 180 minutes. […]
# (§5) instrument for chemiluminescent signal detection.
# (§6) 11 GPCR MAX dose response, Agonist and Antagonist
# (§7) Targets (60 Data points each): i) CALCRL‐RAMP3‐Antagonist
# (§8) 180 minutes. Vehicle concentration was 1%. […]
# (§9) hours. Vehicle concentration was 1%. Extended incubation is typically required to observe an inverse agonist response in the PathHunter arrestin assay.
# (§10) Positive Allosteric Modulation Format
# (§11) 1. For allosteric determination, cells were pre-incubated with sample followed by agonist induction at the EC20 concentration. […]
# (§12) temperature for 90 or 180 minutes.
# (§13) Antagonist/Negative Allosteric Modulation Format
# (§14) 1. Compound activity was analyzed using CBIS data analysis suite (ChemInnovation, CA).
# PRLHR = molecular target: T2, PRLHR (Homo sapiens, UniProt P49683); assay: gpcrMAX PathHunter beta-arrestin; type: cell-based
# T2 construct: ProLink (beta-galactosidase enzyme-donor fragment)
# Procedure: as §1, §2, §3, §4, §5, §6, §7, §8, §9, §10, §11, §12, §13, §14
# GPR35 = molecular target: T3, GPR35 (Homo sapiens, UniProt Q9HC97); assay: gpcrMAX PathHunter beta-arrestin; type: cell-based
# T3 construct: ProLink (beta-galactosidase enzyme-donor fragment)
# Procedure: as §1, §2, §3, §4, §5, §6, §7, §8, §9, §10, §11, §12, §13, §14
# CALCRL-RAMP3 = molecular target: T4, CALCRL-RAMP3 (Homo sapiens, UniProt O60896+Q16602); assay: gpcrMAX PathHunter beta-arrestin; type: cell-based
# T4 construct: ProLink (beta-galactosidase enzyme-donor fragment)
# Procedure: as §1, §2, §3, §4, §5, §6, §7, §8, §9, §10, §11, §12, §13, §14
# CXCR4 = molecular target: T5, CXCR4 (Homo sapiens, UniProt P61073); assay: gpcrMAX PathHunter beta-arrestin; type: cell-based
# T5 construct: ProLink (beta-galactosidase enzyme-donor fragment)
# Procedure: as §1, §2, §3, §4, §5, §6, §7, §8, §9, §10, §11, §12, §13, §14
# HTR1B = molecular target: T6, HTR1B (Homo sapiens, UniProt P28222); assay: gpcrMAX PathHunter beta-arrestin; type: cell-based
# T6 construct: ProLink (beta-galactosidase enzyme-donor fragment)
# Procedure: as §1, §2, §3, §4, §5, §6, §7, §8, §9, §10, §11, §12, §13, §14
# RE:786-0 = system: RE:786-0; design: method as in earlier work; conditions: NCI-60 panel; ref [4],[5],[6],[7]; cited from earlier work
# EDNRB = EDNRB (Homo sapiens, UniProt P24530); assay: gpcrMAX PathHunter beta-arrestin
# CNS:SF-295 = system: CNS:SF-295; design: method as in earlier work; conditions: NCI-60 panel; ref [4],[5],[6],[7]; cited from earlier work
# CRHR2 = CRHR2 (Homo sapiens, UniProt Q13324); assay: gpcrMAX PathHunter beta-arrestin
# BRS3 = BRS3 (Homo sapiens, UniProt P32247); assay: gpcrMAX PathHunter beta-arrestin
# NPBWR2 = NPBWR2 (Homo sapiens, UniProt P48146); assay: gpcrMAX PathHunter beta-arrestin
# BR:MDA-MB-231 = system: BR:MDA-MB-231; design: method as in earlier work; conditions: NCI-60 panel; ref [4],[5],[6],[7]; cited from earlier work
# LE:CCRF-CEM = system: LE:CCRF-CEM; design: method as in earlier work; conditions: NCI-60 panel; ref [4],[5],[6],[7]; cited from earlier work
# LC:HOP-62 = system: LC:HOP-62; design: method as in earlier work; conditions: NCI-60 panel; ref [4],[5],[6],[7]; cited from earlier work
# AVPR2 = AVPR2 (Homo sapiens, UniProt P30518); assay: gpcrMAX PathHunter beta-arrestin
# NMU1R = NMU1R (Homo sapiens, UniProt Q9HB89); assay: gpcrMAX PathHunter beta-arrestin
# ME:M14 = system: ME:M14; design: method as in earlier work; conditions: NCI-60 panel; ref [4],[5],[6],[7]; cited from earlier work
# CALCR-RAMP2 = CALCR-RAMP2 (Homo sapiens, UniProt O60895+P30988); assay: gpcrMAX PathHunter beta-arrestin
# OPRL1 = OPRL1 (Homo sapiens, UniProt P41146); assay: gpcrMAX PathHunter beta-arrestin
# OXER1 = OXER1 (Homo sapiens, UniProt Q8TDS5); assay: gpcrMAX PathHunter beta-arrestin
# [1] = antagonist format, dose response
# T4 sequence (Q16602 23-461): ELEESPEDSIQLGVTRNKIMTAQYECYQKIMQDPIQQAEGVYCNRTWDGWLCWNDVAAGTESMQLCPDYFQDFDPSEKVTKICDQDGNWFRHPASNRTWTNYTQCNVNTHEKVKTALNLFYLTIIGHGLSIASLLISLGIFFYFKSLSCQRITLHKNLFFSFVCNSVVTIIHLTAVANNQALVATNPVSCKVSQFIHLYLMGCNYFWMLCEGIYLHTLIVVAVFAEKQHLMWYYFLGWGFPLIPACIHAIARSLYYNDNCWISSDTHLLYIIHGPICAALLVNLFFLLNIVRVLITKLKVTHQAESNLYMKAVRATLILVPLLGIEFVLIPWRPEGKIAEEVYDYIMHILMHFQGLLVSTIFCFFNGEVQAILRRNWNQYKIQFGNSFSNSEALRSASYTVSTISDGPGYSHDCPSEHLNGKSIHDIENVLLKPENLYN
# T4 sequence (O60896 24-148 partner): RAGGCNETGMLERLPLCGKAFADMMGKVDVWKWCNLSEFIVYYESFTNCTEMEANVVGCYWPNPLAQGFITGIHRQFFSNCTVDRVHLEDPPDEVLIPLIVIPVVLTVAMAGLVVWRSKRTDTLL
# T5 sequence (P61073 whole entry, the tested form may be a part): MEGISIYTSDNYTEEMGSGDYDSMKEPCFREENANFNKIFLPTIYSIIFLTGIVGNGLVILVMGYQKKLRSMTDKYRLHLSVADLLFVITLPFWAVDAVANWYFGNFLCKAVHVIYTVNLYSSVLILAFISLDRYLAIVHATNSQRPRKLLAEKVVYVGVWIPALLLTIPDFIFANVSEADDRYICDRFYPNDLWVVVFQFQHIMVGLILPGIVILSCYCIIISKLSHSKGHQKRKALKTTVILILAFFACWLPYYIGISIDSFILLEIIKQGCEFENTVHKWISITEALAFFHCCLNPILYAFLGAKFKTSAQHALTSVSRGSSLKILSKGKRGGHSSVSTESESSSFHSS
# T2 sequence (P49683 whole entry, the tested form may be a part): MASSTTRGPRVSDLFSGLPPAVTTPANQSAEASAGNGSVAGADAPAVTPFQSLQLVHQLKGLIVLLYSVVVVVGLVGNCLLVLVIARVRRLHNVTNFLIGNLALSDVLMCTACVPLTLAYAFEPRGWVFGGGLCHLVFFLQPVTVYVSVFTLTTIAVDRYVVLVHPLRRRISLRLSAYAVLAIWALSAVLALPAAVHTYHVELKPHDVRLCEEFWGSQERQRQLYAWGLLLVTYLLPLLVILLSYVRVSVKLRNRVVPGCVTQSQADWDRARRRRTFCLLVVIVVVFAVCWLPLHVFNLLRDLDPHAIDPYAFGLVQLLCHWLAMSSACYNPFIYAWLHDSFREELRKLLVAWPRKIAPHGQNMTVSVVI
# T3 sequence (Q9HC97 whole entry, the tested form may be a part): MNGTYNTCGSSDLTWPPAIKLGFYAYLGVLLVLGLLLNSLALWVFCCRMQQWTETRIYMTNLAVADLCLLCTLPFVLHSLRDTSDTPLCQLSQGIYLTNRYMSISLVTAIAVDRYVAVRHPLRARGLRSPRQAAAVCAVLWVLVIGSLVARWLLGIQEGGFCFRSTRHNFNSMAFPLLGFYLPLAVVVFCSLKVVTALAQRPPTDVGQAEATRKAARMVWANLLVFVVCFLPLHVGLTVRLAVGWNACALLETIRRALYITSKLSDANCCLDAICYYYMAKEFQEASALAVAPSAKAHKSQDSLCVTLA
# T1 sequence (Q6W5P4 1-377 isoform Q6W5P4-4): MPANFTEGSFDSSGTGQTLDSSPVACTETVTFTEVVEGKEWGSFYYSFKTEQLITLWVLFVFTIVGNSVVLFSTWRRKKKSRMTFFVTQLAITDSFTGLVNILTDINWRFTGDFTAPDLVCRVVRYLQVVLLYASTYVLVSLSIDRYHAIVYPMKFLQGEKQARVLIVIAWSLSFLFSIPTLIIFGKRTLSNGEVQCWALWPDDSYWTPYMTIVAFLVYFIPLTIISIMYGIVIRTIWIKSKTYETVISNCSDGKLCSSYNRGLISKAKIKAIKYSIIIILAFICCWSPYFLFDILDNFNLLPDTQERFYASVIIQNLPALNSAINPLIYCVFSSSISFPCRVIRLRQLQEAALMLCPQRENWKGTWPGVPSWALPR
# T6 sequence (P28222 whole entry, the tested form may be a part): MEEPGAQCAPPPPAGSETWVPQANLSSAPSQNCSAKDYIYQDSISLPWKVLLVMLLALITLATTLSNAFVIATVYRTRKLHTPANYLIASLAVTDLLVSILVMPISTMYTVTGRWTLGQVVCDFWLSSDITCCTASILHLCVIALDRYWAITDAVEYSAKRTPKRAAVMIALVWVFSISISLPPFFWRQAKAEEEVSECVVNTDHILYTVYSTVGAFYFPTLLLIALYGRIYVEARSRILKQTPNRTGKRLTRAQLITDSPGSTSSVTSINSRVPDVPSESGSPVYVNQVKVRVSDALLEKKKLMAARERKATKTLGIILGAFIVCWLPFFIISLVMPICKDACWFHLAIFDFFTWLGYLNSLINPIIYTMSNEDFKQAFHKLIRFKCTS
# DRD4, sequence (P21917 whole entry): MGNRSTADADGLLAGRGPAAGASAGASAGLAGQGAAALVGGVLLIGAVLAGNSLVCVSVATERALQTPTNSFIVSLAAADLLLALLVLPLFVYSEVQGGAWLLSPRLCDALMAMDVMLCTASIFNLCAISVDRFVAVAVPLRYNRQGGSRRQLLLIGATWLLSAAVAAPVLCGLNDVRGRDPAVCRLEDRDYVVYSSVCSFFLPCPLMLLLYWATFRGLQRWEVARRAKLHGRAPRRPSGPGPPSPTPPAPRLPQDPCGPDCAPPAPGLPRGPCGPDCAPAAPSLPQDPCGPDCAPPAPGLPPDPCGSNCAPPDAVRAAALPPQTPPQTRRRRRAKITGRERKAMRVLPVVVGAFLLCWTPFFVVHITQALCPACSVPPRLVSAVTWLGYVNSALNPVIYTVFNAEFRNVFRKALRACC
# CALCR-RAMP2, sequence (P30988 25-474): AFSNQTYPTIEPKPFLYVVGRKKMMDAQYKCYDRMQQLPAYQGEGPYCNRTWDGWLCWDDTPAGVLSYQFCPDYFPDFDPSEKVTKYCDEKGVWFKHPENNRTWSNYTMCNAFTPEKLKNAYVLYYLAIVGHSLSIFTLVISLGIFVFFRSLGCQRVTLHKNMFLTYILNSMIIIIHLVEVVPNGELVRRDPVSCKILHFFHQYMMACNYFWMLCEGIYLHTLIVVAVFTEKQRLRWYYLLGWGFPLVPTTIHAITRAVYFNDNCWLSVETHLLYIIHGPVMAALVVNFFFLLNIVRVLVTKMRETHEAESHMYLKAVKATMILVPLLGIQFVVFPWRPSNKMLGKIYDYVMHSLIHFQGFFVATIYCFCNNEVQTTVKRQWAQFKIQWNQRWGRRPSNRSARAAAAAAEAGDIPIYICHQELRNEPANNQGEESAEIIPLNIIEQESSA
# CALCR-RAMP2, sequence (O60895 43-175 partner): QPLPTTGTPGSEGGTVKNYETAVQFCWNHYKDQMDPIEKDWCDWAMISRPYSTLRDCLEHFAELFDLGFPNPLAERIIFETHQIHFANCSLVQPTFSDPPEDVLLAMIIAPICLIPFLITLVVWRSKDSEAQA
# AVPR2, sequence (P30518 whole entry): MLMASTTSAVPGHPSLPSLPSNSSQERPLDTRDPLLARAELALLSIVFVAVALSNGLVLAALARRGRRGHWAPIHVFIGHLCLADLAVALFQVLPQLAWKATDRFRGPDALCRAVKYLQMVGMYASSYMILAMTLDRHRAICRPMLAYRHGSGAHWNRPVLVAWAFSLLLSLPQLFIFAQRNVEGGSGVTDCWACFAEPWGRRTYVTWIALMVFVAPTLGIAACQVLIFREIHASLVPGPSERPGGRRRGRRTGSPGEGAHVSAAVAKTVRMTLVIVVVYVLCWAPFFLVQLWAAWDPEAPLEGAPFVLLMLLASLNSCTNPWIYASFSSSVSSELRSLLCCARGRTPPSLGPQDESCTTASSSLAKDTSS
# AVPR1A, sequence (P37288 whole entry): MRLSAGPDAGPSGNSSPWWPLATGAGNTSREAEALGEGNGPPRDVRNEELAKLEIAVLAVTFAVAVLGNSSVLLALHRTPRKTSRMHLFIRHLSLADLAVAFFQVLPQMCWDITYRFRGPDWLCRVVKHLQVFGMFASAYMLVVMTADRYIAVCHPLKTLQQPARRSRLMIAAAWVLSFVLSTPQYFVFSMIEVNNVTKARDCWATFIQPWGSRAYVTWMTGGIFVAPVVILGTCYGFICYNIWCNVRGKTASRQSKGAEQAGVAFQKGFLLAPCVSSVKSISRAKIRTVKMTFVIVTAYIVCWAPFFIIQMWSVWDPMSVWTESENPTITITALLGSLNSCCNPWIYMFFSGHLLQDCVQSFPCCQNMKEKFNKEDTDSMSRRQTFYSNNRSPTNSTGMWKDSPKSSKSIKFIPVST
# NMBR, sequence (P28336 whole entry): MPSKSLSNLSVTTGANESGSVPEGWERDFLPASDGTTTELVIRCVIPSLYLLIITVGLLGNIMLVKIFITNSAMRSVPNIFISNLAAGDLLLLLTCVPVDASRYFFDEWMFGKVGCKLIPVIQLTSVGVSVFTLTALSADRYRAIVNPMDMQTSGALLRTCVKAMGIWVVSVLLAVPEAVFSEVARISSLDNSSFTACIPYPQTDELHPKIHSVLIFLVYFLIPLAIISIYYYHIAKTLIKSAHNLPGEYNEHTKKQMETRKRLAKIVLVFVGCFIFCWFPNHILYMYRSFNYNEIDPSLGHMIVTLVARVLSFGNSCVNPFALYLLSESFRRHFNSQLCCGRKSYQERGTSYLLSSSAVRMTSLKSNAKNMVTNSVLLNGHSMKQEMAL
# NPBWR2, sequence (P48146 whole entry): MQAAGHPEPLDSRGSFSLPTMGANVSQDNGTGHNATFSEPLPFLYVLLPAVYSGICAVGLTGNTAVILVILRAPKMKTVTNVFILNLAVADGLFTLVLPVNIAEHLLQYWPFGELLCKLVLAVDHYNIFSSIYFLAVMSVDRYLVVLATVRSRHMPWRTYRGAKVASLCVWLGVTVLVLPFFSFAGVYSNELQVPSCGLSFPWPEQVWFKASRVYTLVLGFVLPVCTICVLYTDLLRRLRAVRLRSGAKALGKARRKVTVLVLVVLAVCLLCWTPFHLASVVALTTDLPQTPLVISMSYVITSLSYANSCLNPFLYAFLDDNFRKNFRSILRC
compound,measurement,setting,value
Cc1c(Cl)cccc1NC(=O)c1sc2nc3c(cc2c1N)C(=O)CCC3 [Compound 1],inhibition at 10 µM,GPR92,-28%
same,inhibition at 10 µM,DRD3,20%
same,inhibition at 10 µM,FSHR,30%
same,inhibition at 10 µM,SSTR2,9%
same,inhibition at 10 µM,DRD4,-7%
same,GI50,CO:HCT-116,66.8 nM
same,inhibition at 10 µM,AVPR1A,-12%
same,inhibition at 10 µM,NMBR,28%
same,inhibition at 10 µM,HRH2,10%
same,inhibition at 10 µM,VIPR1,7%
same,inhibition at 10 µM,CNR2,16%
same,GI50,ME:SK-MEL-28,224 nM
same,inhibition at 10 µM,PTGER2,-5%
same,inhibition at 10 µM,CCR9,17%
same,IC50,NPSR1B; [1],1000 nM
same,inhibition at 10 µM,"NPSR1B; antagonist mode, 10 µM",59%
same,IC50,PRLHR; [1],9300 nM
same,inhibition at 10 µM,"PRLHR; antagonist mode, 10 µM",44%
same,EC50,"GPR35; agonist format, dose response",7500 nM
same,inhibition at 10 µM,"GPR35; antagonist mode, 10 µM",-12%
same,IC50,CALCRL-RAMP3; [1],11900 nM
same,inhibition at 10 µM,"CALCRL-RAMP3; antagonist mode, 10 µM",63%
same,IC50,CXCR4; [1],6900 nM
same,inhibition at 10 µM,"CXCR4; antagonist mode, 10 µM",39%
same,IC50,HTR1B; [1],> 50000 nM
same,inhibition at 10 µM,"HTR1B; antagonist mode, 10 µM",42%
same,GI50,RE:786-0,103 nM
same,inhibition at 10 µM,EDNRB,0%
same,GI50,CNS:SF-295,36.5 nM
same,inhibition at 10 µM,CRHR2,8%
same,inhibition at 10 µM,BRS3,17%
same,inhibition at 10 µM,NPBWR2,-5%
same,GI50,BR:MDA-MB-231,141 nM
same,GI50,LE:CCRF-CEM,141 nM
same,GI50,LC:HOP-62,110 nM
same,inhibition at 10 µM,AVPR2,13%
same,inhibition at 10 µM,NMU1R,2%
same,GI50,ME:M14,71.3 nM
same,inhibition at 10 µM,CALCR-RAMP2,0%
same,inhibition at 10 µM,OPRL1,-7%
same,inhibition at 10 µM,OXER1,-1%
